Measurements reported in publication PMC11768370, “Etodolac Single Dose Metabolic Profile Elucidation: Pharmacokinetics and Adverse Events in Healthy Volunteers” (Pharmaceuticals, 2025).

Test system: plasma metabolites
Test: Untargeted plasma metabolomic profile pre-dose (T0) vs post-dose (Tmax), UPLC-QToF
Assay type: in vivo, human
Conditions: healthy volunteers, single dose 500 mg
Experimental: Samples were collected at two times: (i) baseline samples (time 0 h), termed the pre-dose group, and (ii) samples at maximum drug concentration (Cmax), termed the post-dose group. Samples were randomized, and 25 μL of each was collected to form a pooled sample for quality control (QC). An aliquot of plasma (200 μL) was extracted by adding cold methanol (400 μL) for protein precipitation. The samples were then vortexed for 30 s and centrifuged at 12,879× g for 10 min at 4 °C. Finally, the supernatant (400 μL) was collected and dried over a stream of nitrogen gas (N2). Samples were resuspended with 200 µL of acetonitrile (ACN)/water (H2O) (1:1 v/v). Sample extraction and analysis were randomized to reduce instrumental and biological bias. QC samples were analyzed every 10 samples to check for variations in extraction and system stability.
The analysis was adapted and performed on an ACQUITY® FTN H Class (Waters, Newcastle, UK) liquid chromatography (UPLC) coupled to a XEVO-G2XS (QToF) quadrupole time-of-flight mass spectrometer (UPLC-QToF) (Waters, Manchester, UK) equipped with an electrospray ionization (ESI) source operated in the positive and negative ionization mode, separately. An ACQUITY UPLC ® CSH C18 column (2.1 mm × 100 mm × 1.7 µm, Waters, Newcastle, UK) was employed as a stationary phase. […]

CCc1cccc2c3c([nH]c12)C(CC)(CC(=O)O)OCC3 (centres unmarked) [Etodolac]
6-ketoprostaglandin E1 relative abundance at Tmax compared to T0: increases twist time in relative abundance | 15-epi-lipoxin A4 relative abundance at Tmax compared to T0: increases in relative abundance
